Experimental data: patent US9540323B2 (BRISTOL-MYERS SQUIBB COMPANY, priority 2012, dated 2017)
Like-named read-outs stand apart in the source and are kept apart here.

How the values were obtained:
[1] = biological target: cloned human P2Y1 receptors (Homo sapiens (Human), UniProt P47900); experiment: Binding Assay B - Scintillation Proximity Assay (SPA) for P2Y1 binding, [33P] 2MeS-ADP; conditions: read-out: P2Y1 Ki (nM) using binding assay B
Experimental: Binding Assay B—Scintillation Proximity Assay (SPA) for P2Y1 Binding
A SPA membrane binding assay was used to identify inhibitors of [^33P] […] Reactions were allowed to proceed to completion at room temperature for 1 hour followed by centrifugation of the plate for 5 min. About 40 μL of the aqueous solution was aspirated. Plates were sealed and the [^33P]

[2] = tested on: human platelet rich plasma (PRP); experiment: ADP induced platelet aggregation assay; conditions: Homo sapiens, Platelet, 5 min, read-out: PA IC50 (μM) @ 10 μM ADP, human PRP, 10 μM ADP, AUC at 5 minute
[3] = SPA, 0.3 nM [33P] 2MeS-ADP, Cheng-Prusoff

Sequence of cloned human P2Y1 receptors (P47900 whole entry): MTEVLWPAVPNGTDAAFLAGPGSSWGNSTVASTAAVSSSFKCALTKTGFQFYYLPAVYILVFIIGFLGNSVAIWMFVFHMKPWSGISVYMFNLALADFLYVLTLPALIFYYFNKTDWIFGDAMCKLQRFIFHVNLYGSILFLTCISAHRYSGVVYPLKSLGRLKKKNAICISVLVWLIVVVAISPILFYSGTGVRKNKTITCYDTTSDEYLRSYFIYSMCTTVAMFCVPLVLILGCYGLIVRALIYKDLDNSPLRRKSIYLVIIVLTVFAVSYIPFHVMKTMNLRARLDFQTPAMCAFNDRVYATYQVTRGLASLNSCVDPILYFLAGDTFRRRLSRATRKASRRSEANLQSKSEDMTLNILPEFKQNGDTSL

Row | SMILES | Ki [1, 3] | IC50 [2] | Ki [1]
1 | CC(C)(C)CN1CCC(c2ccc(NC(=O)Nc3ccccc3N3CC(C)(C)c4c(-c5ccc(Cl)cc5)c(F)cc(O)c43)cc2)CC1 [Example 240, 1-(2-(4-(4-Chlorophenyl)-5-fluoro-7-hydroxy-3,3-dimethylindolin-1-yl)phenyl)-3-(4-(1-neopentylpiperidin-4-yl)phenyl)urea] | 13.7 nM | 0.31 µM | –
2 | CC(C)(C)c1ccc(-c2c(F)cc(O)c3c2C(C)(C)CN3c2ccccc2NC(=O)Nc2ccc(OC(F)(F)F)cc2)cc1 [Example 241, 1-(2-(4-(4-(tert-Butyl)phenyl)-5-fluoro-7-hydroxy-3,3-dimethylindolin-1-yl)phenyl)-3-(4-(trifluoromethoxy)phenyl)urea] | 33.3 nM | 0.15 µM | –
3 | CC(C)(C)c1ccc(-c2c(F)cc(O)c3c2C(C)(C)CN3c2ccccc2NC(=O)Nc2csc(Cl)n2)cc1 [Example 242, 1-(2-(4-(4-(tert-Butyl)phenyl)-5-fluoro-7-hydroxy-3,3-dimethylindolin-1-yl)phenyl)-3-(2-chlorothiazol-4-yl)urea] | 12.6 nM | 0.06 µM | –
4 | CC(C)(C)c1ccc(-c2c(F)cc(O)c3c2C(C)(C)CN3c2ccccc2NC(=O)Nc2csc(C(F)(F)F)n2)cc1 [Example 243, 1-(2-(4-(4-(tert-Butyl)phenyl)-5-fluoro-7-hydroxy-3,3-dimethylindolin-1-yl)phenyl)-3-(2-(trifluoromethyl)thiazol-4-yl)urea] | 20.3 nM | 0.1 µM | –
5 | Cc1cc(-c2c(F)cc(O)c3c2C(C)(C)CN3c2ccccc2NC(=O)Nc2ccc(OC(F)(F)F)cc2)ccc1F [Example 245, 1-(2-(5-Fluoro-4-(4-fluoro-3-methylphenyl)-7-hydroxy-3,3-dimethylindolin-1-yl)phenyl)-3-(4-(trifluoromethoxy)phenyl)urea] | 11.4 nM | 0.19 µM | –
6 | CC(C)(C)CN1CCC(NC(=O)Nc2ccccc2N2CC(C)(C)c3c(-c4ccc(C(F)(F)F)cc4)c(F)cc(O)c32)CC1 [Example 246, 1-(2-(5-Fluoro-7-hydroxy-3,3-dimethyl-4-(4-(trifluoromethyl)phenyl)indolin-1-yl)phenyl)-3-(1-neopentylpiperidin-4-yl)urea] | 14.2 nM | 0.25 µM | –
7 | CC1(C)CN(c2ccccc2NC(=O)Nc2ccc(OC(F)(F)F)cc2)c2c(O)cc(F)c(-c3cccc(C#N)c3)c21 [Example 247, 1-(2-(4-(3-Cyanophenyl)-5-fluoro-7-hydroxy-3,3-dimethylindolin-1-yl)phenyl)-3-(4-(trifluoromethoxy)phenyl)urea] | 10 nM | 0.87 µM | –
8 | CC1(C)CN(c2ccccc2NC(=O)Nc2ccc(OC(F)(F)F)cc2)c2c(O)cc(F)c(-c3ccc(C#N)cc3)c21 [Example 248, 1-(2-(4-(4-Cyanophenyl)-5-fluoro-7-hydroxy-3,3-dimethylindolin-1-yl)phenyl)-3-(4-(trifluoromethoxy)phenyl)urea] | 7.4 nM | 0.43 µM | –
9 | CN(C)Cc1cccc(-c2c(F)cc(O)c3c2C(C)(C)CN3c2ccccc2NC(=O)Nc2ccc(OC(F)(F)F)cc2)c1 [Example 249, 1-(2-(4-(3-((Dimethylamino)methyl)phenyl)-5-fluoro-7-hydroxy-3,3-dimethylindolin-1-yl)phenyl)-3-(4-(trifluoromethoxy)phenyl)urea] | 12.2 nM | 0.7 µM | –
10 | C=C(C)c1ccc(-c2c(F)cc(O)c3c2C(C)(C)CN3c2ccccc2NC(=O)Nc2ccc(OC(F)(F)F)cc2)cc1 [Example 250, 1-(2-(5-Fluoro-7-hydroxy-3,3-dimethyl-4-(4-(prop-1-en-2-yl)phenyl)indolin-1-yl)phenyl)-3-(4-(trifluoromethoxy)phenyl)urea] | 29.5 nM | 0.22 µM | –
11 | CC1(C)CN(c2ccccc2NC(=O)Nc2ccc(OC(F)(F)F)cc2)c2c(O)cc(F)c(-c3cccc(CN4CCOCC4)c3)c21 [Example 251, 1-(2-(5-Fluoro-7-hydroxy-3,3-dimethyl-4-(3-(morpholinomethyl)phenyl)indolin-1-yl)phenyl)-3-(4-(trifluoromethoxy)phenyl)urea] | 16.9 nM | 0.93 µM | –
12 | CC1(C)CN(c2ccccc2NC(=O)Nc2ccc(OC(F)(F)F)cc2)c2c(O)cc(F)c(C3CC3)c21 [Example 252, 1-(2-(4-Cyclopropyl-5-fluoro-7-hydroxy-3,3-dimethylindolin-1-yl)phenyl)-3-(4-(trifluoromethoxy)phenyl)urea] | 18.3 nM | 0.42 µM | –
13 | CC(C)n1nc(-c2c(F)cc(O)c3c2C(C)(C)CN3c2ccccc2NC(=O)Nc2nc3ccc(F)cc3s2)cc1C(F)(F)F [Example 253, 1-(2-(5-Fluoro-7-hydroxy-4-(1-isopropyl-5-(trifluoromethyl)-1H-pyrazol-3-yl)-3,3-dimethylindolin-1-yl)phenyl)-3-(6-fluorobenzo[d]thiazol-2-yl)urea] | 33.4 nM | 0.12 µM | –
14 | CC(C)(C)c1nc(-c2c(F)cc(O)c3c2C(C)(C)CN3c2ccccc2NC(=O)Nc2nc3ccc(F)cc3s2)co1 [Example 254, 1-(2-(4-(2-tert-Butyloxazol-4-yl)-5-fluoro-7-hydroxy-3,3-dimethylindolin-1-yl)phenyl)-3-(6-fluorobenzo[d]thiazol-2-yl)urea] | 13.7 nM | 0.87 µM | –
15 | CC(C)c1noc(-c2c(F)cc(O)c3c2C(C)(C)CN3c2ccccc2NC(=O)Nc2ccc(OC(F)(F)F)cc2)n1 [Example 256, 1-(2-(5-Fluoro-7-hydroxy-4-(3-isopropyl-1,2,4-oxadiazol-5-yl)-3,3-dimethylindolin-1-yl)phenyl)-3-(4-(trifluoromethoxy)phenyl)urea] | 6.6 nM | 0.76 µM | –
16 | CC1(C)CN(c2ccccc2NC(=O)Nc2nc3ccc(Cl)nc3s2)c2c(O)cc(F)c(-c3noc(C(F)(F)F)n3)c21 [Example 257, 1-(5-Chlorothiazolo[5,4-b]pyridin-2-yl)-3-(2-(5-fluoro-7-hydroxy-3,3-dimethyl-4-(5-(trifluoromethyl)-1,2,4-oxadiazol-3-yl)indolin-1-yl)phenyl)urea] | 86.2 nM | 0.29 µM | –
17 | CC(C)c1nc(-c2c(F)cc(O)c3c2C(C)(C)CN3c2ccccc2NC(=O)Nc2ccc(OC(F)(F)F)cc2)co1 [Example 258, 1-(2-(5-Fluoro-7-hydroxy-4-(2-isopropyloxazol-4-yl)-3,3-dimethylindolin-1-yl)phenyl)-3-(4-(trifluoromethoxy)phenyl)urea] | 7.5 nM | 0.52 µM | –
18 | CC(C)(C)c1nc(-c2c(F)cc(O)c3c2C(C)(C)CN3c2ccccc2NC(=O)Nc2ccc(OC(F)(F)F)cc2)co1 [Example 259, 1-(2-(4-(2-(tert-Butyl)oxazol-4-yl)-5-fluoro-7-hydroxy-3,3-dimethylindolin-1-yl)phenyl)-3-(4-(trifluoromethoxy)phenyl)urea] | 46.3 nM | 0.58 µM | –
19 | CC(C)Cc1nc(-c2c(F)cc(O)c3c2C(C)(C)CN3c2ccccc2NC(=O)Nc2ccc(OC(F)(F)F)cc2)co1 [Example 260, 1-(2-(5-Fluoro-7-hydroxy-4-(2-isobutyloxazol-4-yl)-3,3-dimethylindolin-1-yl)phenyl)-3-(4-(trifluoromethoxy)phenyl)urea] | 18.8 nM | 0.4 µM | –
20 | CC1(C)CN(c2ccccc2NC(=O)Nc2ccc(OC(F)(F)F)cc2)c2c(O)cc(F)c(-c3ccno3)c21 [Example 261, 1-(2-(5-Fluoro-7-hydroxy-4-(isoxazol-5-yl)-3,3-dimethylindolin-1-yl)phenyl)-3-(4-(trifluoromethoxy)phenyl)urea] | 5.5 nM | 1.99 µM | –
21 | CC1(C)CN(c2ccccc2NC(=O)Nc2ccc(OC(F)(F)F)cc2)c2c(O)cc(F)c(-c3cc(C(F)(F)F)no3)c21 [Example 262, 1-(2-(5-Fluoro-7-hydroxy-3,3-dimethyl-4-(3-(trifluoromethyl)isoxazol-5-yl)indolin-1-yl)phenyl)-3-(4-(trifluoromethoxy)phenyl)urea] | 12.9 nM | 0.92 µM | –
22 | CC1(C)CN(c2ccccc2NC(=O)Nc2nc3ccc(Cl)nc3s2)c2c(O)cc(F)c(-c3cc(C(F)(F)F)no3)c21 [Example 263, 1-(5-Chlorothiazolo[5,4-b]pyridin-2-yl)-3-(2-(5-fluoro-7-hydroxy-3,3-dimethyl-4-(3-(trifluoromethyl)isoxazol-5-yl)indolin-1-yl)phenyl)urea] | 20.5 nM | 0.84 µM | –
23 | CC1(C)CN(c2ccccc2NC(=O)Nc2nc3ccc(F)cc3s2)c2c(O)cc(F)c(-c3cc(C(F)(F)F)no3)c21 [Example 264, 1-(2-(5-Fluoro-7-hydroxy-3,3-dimethyl-4-(3-(trifluoromethyl)isoxazol-5-yl)indolin-1-yl)phenyl)-3-(6-fluorobenzo[d]thiazol-2-yl)urea] | – | 0.62 µM | 18.2 nM
24 | CC1(C)CN(c2ccccc2NC(=O)Nc2nc3ccc(Cl)cc3s2)c2c(O)cc(F)c(-c3cc(C(F)(F)F)no3)c21 [Example 265, 1-(6-Chlorobenzo[d]thiazol-2-yl)-3-(2-(5-fluoro-7-hydroxy-3,3-dimethyl-4-(3-(trifluoromethyl)isoxazol-5-yl)indolin-1-yl)phenyl)urea] | 49.9 nM | 0.4 µM | –
25 | CC(C)n1nc(-c2c(F)cc(O)c3c2C(C)(C)CN3c2ccccc2NC(=O)Nc2nc3ccc(Cl)cc3s2)cc1C(F)(F)F [Example 266, 1-(6-Chlorobenzo[d]thiazol-2-yl)-3-(2-(5-fluoro-7-hydroxy-4-(1-isopropyl-5-(trifluoromethyl)-1H-pyrazol-3-yl)-3,3-dimethylindolin-1-yl)phenyl)urea] | 41.1 nM | 0.13 µM | –
26 | CC(C)n1nc(C(F)(F)F)cc1-c1c(F)cc(O)c2c1C(C)(C)CN2c1ccccc1NC(=O)Nc1nc2ccc(F)cc2s1 [Example 267, 1-(2-(5-Fluoro-7-hydroxy-4-(1-isopropyl-3-(trifluoromethyl)-1H-pyrazol-5-yl)-3,3-dimethylindolin-1-yl)phenyl)-3-(6-fluorobenzo[d]thiazol-2-yl)urea] | 16.4 nM | 0.51 µM | –
